Columns and labels:
Aβ1–42 = target: T1, Aβ1–42 (Homo sapiens, UniProt P05067); test: Inhibition of Cu^2+-induced Aβ1–42 aggregation (ThT-binding assay); assay type: biochemical; conditions: [Aβ] = 20 μM, [Cu^2+] = 20 μM, [compound] = 40 μM; 37 °C, 24 h
T1 construct: Aβ1–42 (Sigma, St. Louis, MO, USA; counterion, NaOH) stock solution was prepared by dissolving Aβ1–42 peptide in ammonium hydroxide; purchased Sigma
Protocol: To investigate the ability of compound 6b1 to inhibit Cu^2+-induced Aβ1–42 aggregation, the ThT-binding assay was performed.
Aβ was diluted in […] (pH 6.6) with […]. The mixture of the peptide (10 μL, 20 μM, final concentration) with or without copper (10 μL, 20 μM, final concentration) and the test compound (10 μL, 40 μM, final concentration) was incubated at 37 °C for 24 h. The 30 μL of the sample was diluted to a final volume of 200 μL with 50 mM glycine-NaOH buffer (pH 8.0) containing thioflavin T (5 μM). The detection method was the same as that of self-induced Aβ aggregation experiment.

mice = test: Step-down passive avoidance test, scopolamine-induced memory impairment; assay type: in vivo
Protocol: A step-down passive avoidance test was used to assess learning and memory in mice. The apparatus (Shanghai XinRuan, Shanghai, China) consisted of two identically sized compartments, with a guillotine door to separate light and dark. Illumination was available in the light box through LED lights at 250 lux. The mice underwent two separate trials: a training trial and a test trial 24 h later. For training trial, mice were initially placed in the light compartment and were allowed to explore the environment freely for 5 min so that they can be familiar with the environment. Then the door was opened, the mice tried to enter the dark compartment since they preferred to stay in dark place. As soon as the mice came into the dark compartment, an electrical shock was delivered through the steel rods. The training lasted for 5 min. […] The test trial was preformed after 24 h. The mice were placed into the light compartment and the door was opened. The time that the mouse spent to enter the dark compartment was recorded as the latency. The numbers that the mouse entered the dark compartment during 5 min were measured as error numbers.

[1] = system: SH-SY5Y human neuroblastoma cells; test: Protective effect against Aβ1–42-induced toxicity in SH-SY5Y cells (MTT); assay type: cell-based
Protocol: The cytoprotective effect of compound 6b1 against Aβ1–42 damage in SH-SY5Y human neuroblastoma cell lines was determined by MTT assay. […] To investigate the protective effect of compound 6b1 on Aβ1–42 induced cell toxicity, SH-SY5Y cells exposed to Aβ1–42 (20 μM) were incubated with different concentrations of compound 6b1 (5, 10, and 20 μM) for 24 h, and the cell viability was tested.
SH-SY5Y cells were seeded in 96-well plates (1 × 10^4 cells per well) and exposed to Aβ1–42 (20 μM) in the presence of compound 6b1 at the increasing doses (0, 5, 10 and 20 μM). After 24 h and 48 h, cell viability was measured by the MTT assay.

[2] = Metal chelation by UV-vis spectrometry; assay type: physicochemical
Protocol: The chelation ability of compound 6b1 toward biometals such as Na^+, K^+, Cu^2+, Fe^2+, Mg^2+, Ca^2+, and Zn^2+ was studied by UV-vis spectrometry. […] Its ability to selectively chelate Cu^2+ versus other relevant metal ions was further investigated by UV-vis spectrometry. Solution of compound 6b1 was prepared and treated with the metal ion (Zn^2+, Fe^2+, Ca^2+, Mg^2+, Na^+ and K^+), after 10 min incubation, the optical response was observed, followed by addition of Cu^2+ and consequent analysis of further spectral changes.
In order to further determine the stoichiometry of compound 6b1 for Cu^2+ binding, the UV spectra was performed by titrations of compound 6b1 upon stepwise additions of a Cu^2+ solution.
The metal chelation of compound 6b1 was tested in ethanol using a UV-vis spectrophotometer (Shimadzu UV-2450PC) with wavelength ranging from 200 to 700 nm. The absorption spectra of compound 6b1 (10 μM, final concentration) alone or in the presence of metal ions (20 μM, final concentration) after incubation for 30 min at room temperature, was recorded at room temperature in a 1 cm quartz cell. Each sample was repeated for at least three times.
Experiments for the determination of metal ion binding selectivity were carried as follows. 20.0 mM stock solutions of CuSO4, ZnSO4, FeSO4, CaCl2, MgCl2, NaCl and KCl in MQ water were prepared and then diluted to 1.0 mM using ethanol. […] 10 μL solutions of the compounds treated with 10 μL of ZnSO4, FeSO4, CaCl2, MgCl2, NaCl and KCl. Spectra were recorded after 10 min incubation at 25 °C. The metal binding selectivity was assessed by then adding 10 μL of CuSO4 solution and incubating for 10 additional min at 25 °C. Selectivity was quantified by comparing and normalizing the absorbance values of the maximum in each case with the absorbance of the solution at the same wavelength after addition of CuSO4.
For binding stoichiometry assay, A fixed amount of compound 6b1 (20 μM) was mixed with growing amounts of copper ion (0–20 μM) and tested the difference UV-vis spectra to investigate the ratio of ligand/metal in the complex.

[3] = Oxygen radical absorbance capacity with fluorescein (ORAC-FL) assay; conditions: compound 1 μM
Protocol: Oxidative stress is another crucial event in AD pathogenesis. In order to determine antioxidant activities of our synthetic compounds, the oxygen radical absorbance capacity method with fluorescein (ORAC-FL) assay was performed. with Trolox (6-hydroxy-2,5,7,8-tetramethylchroman-2-carboxylic acid) as the standard, and their antioxidant activity was expressed as Trolox equivalents.
The antioxidant activities of the compounds in vitro were determined by the oxygen radical absorbance capacity fluorescein (ORAC-FL) assay. The tested compounds and (±)-6-hydroxy-2,5,7,8-tetramethylchroman-2-carboxylic acid (Trolox) were dissolved in DMSO at a concentration of 10 mM, and then diluted with 75 mM potassium phosphate buffer (pH 7.4) to 50 μM and 10 μM for use. The fluorescein (FL) stock solution (3.4 mM) was diluted with the same buffer to 136 nM. All the assays were conducted with 75 mM potassium phosphate bufffer (pH 7.4), and the final reaction mixture was 200 μL.
The mixture of compounds (or buffer) (20 μL) and fluorescein (FL, 120 μL) were incubated for 15 min at 37 °C in a black 96-well plate. Then 2,2′-azobis-(amidino-propane)-dihydrochloride (AAPH) solution (60 μL, 40 mM) was rapidly added to the reaction mixture. The fluorescence was recorded every 5 min for 240 min at 485 nm (excitation wavelength) and 535 nm (emission wavelength) (Varioskan Flash Multimode Reader, Thermo Scientific, Waltham, MA, USA), and each sample was prepared and measured for three times independently. […] The net AUC for a sample was calculated using the expression net AUC = AUCsample − AUCblank, The ORAC-FL value of each sample was calculated using the equation of net AUCsample/(AUCTrolox – AUCblank), which was expressed as Trolox equivalents.

[4] = compound 10 μM, metal ions 20 μM, ethanol

T1 sequence (P05067 672-713): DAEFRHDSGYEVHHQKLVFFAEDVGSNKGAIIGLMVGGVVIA

Question: With CCN(CC)c1ccc(/C=C/c2cc(NCCCN(C)C)c3ccccc3n2)cc1 [Compound 6b1, (E)-N^1-(2-(4-(Diethylamino)styryl)quinolin-4-yl)-N^3,N^3-dimethylpropane-1,3-diamine] as the compound, how does the “Inhibition of Cu^2+-induced Aβ aggregation” value (Aβ1–42) read?
Answer: The value was 85.8%.

Question: What about the “Improvement of memory impairment compared with model group” value (mice; 4.0 mg/kg (low dose)) of the same compound?
Answer: The value was “didn’t exhibit significant improvement”.

Question: What about the Latency time (mice; 16.0 mg/kg (high dose)) of the same compound?
Answer: The Latency time was 182 s.

Question: And the Number of errors (mice; 16.0 mg/kg (high dose))?
Answer: The Number of errors was 2.72.

Question: And the “Cell viability against Aβ1–42-induced cytotoxicity” value ([1]; Aβ1–42 20 μM, compound 5, 10, 20 μM, 24 h)?
Answer: The value was “increased the cell viability”.

Question: And the viability at 20 µM ([1]; Homo sapiens, SH-SY5Y, 48 h, read-out: Cell viability after co-incubation with Aβ1–42)?
Answer: The viability at 20 µM was 89.8%.

Question: What about the “Binding to Na^+, K^+, Mg^2+, Ca^2+ (UV-vis)” value [2, 4] of the same compound?
Answer: Its value is “may not bind to these metal ions”.

Question: And the “Interaction with Cu^2+, Fe^2+, Zn^2+ (UV-vis)” value [2, 4]?
Answer: The value was “form the complex”.

Question: And the “Selectivity of metal chelation for Cu^2+ versus other metal ions” value ([2]; versus Zn^2+, Fe^2+, Ca^2+, Mg^2+, Na^+, K^+)?
Answer: Its value is “good selectivity of metal chelation for Cu^2+”.

Question: And the ORAC [3]?
Answer: The ORAC was 6.23 ± 0.05 μmol of Trolox equivalents/μmol of tested compounds.

Source: paper PMC6321145 (Molecules, 2018)
